Test results reported in US6156700A, “3-(1,2-Benzisothiazol- and isoxazol-5-yl)-2,4(1H,3H)-pyrimidinedione or thione and 3-(1,2-benzisothiazol- and isoxazol-5-yl)-4(3H)-pyrimidinone or thione herbicidal agents” (American Cyanmid Company, priority 1998, dated 2000).

Experiments:
Parameters in all cases: scale not given here
[1] = test system: CYPSE Flatsedge; assay: Postemergence weed control, flooded paddy (Table IV); format: in vivo, Cyperus serotinus
From the text: (§1) Plastic containers containing weeds which are 3 to 5 cm tall and rice seedlings at the 1.5 to 2.5 leaf stage are flooded with water. The water is maintained at 1.5 to 3 cm above the soil surface for the duration of the experiment. Test compounds are applied as aqueous/acetone mixtures 50/50 v/v directly into the flood water to provide the equivalent of about 0.0313 to 0.500 kg/ha of active ingredient. The treated containers are placed on greenhouse benches and cared for in accordance with conventional greenhouse procedures. Three to four weeks after treatment, the test is terminated and each container is examined and herbicidal effect rated according to the rating system provided in Example 185. The compounds evaluated are reported by compound number given in Example 185.

[2] = test system: MOOVA Monochoria; assay: as above; format: in vivo, Monochoria vaginalis
From the text: as §1

[3] = test system: ORYSAT Rice, Tebonnet; assay: Rice tolerance, flooded paddy (Table IV); format: in vivo, Oryza sativa; details: crop tolerance
From the text: as §1

[4] = test system: ECHORC Watergrass (Calif.); assay: Postemergence weed control, flooded paddy (Table IV); format: in vivo, Echinochloa oryzoides
From the text: as §1

[5] = test system: CYPIR Rice Flatsedge; assay: as above; format: in vivo, Cyperus iria
From the text: as §1

[6] = test system: SAGPY Arrowhead (Pygmaea); assay: as above; format: in vivo, Sagittaria pygmaea
From the text: as §1

SMILES	herbicidal effect rating ([1]; 0.1250 kg/ha)	herbicidal effect rating ([1]; 0.2500 kg/ha)	herbicidal effect rating ([2]; 0.1250 kg/ha)	herbicidal effect rating ([2]; 0.2500 kg/ha)	herbicidal effect rating ([3]; 0.1250 kg/ha)	herbicidal effect rating ([3]; 0.2500 kg/ha)	herbicidal effect rating ([4]; 0.1250 kg/ha)	herbicidal effect rating ([4]; 0.2500 kg/ha)	herbicidal effect rating ([5]; 0.1250 kg/ha)	herbicidal effect rating ([5]; 0.2500 kg/ha)	herbicidal effect rating ([6]; 0.1250 kg/ha)	herbicidal effect rating ([6]; 0.2500 kg/ha)
CCOC(=O)COc1ccc(C)cc1-c1nsc2ccc(-n3c(=O)cc(C(F)(F)F)n(C)c3=O)cc12 [Compound 49, Ethyl {{2-{5-[3,6-dihydro-3-methyl-2,6-dioxo-4-(trifluoromethyl)-1(2H)-pyrimidinyl]-1,2-benzisothiazol-3-yl}-p-tolyl}oxy}acetate]	0.0	0.0	9.0	9.0	0.0	0.0	9.0	9.0	4.0	6.0	0.0	0.0
Cc1ccc(OCC(=O)OCC2(c3ccccc3)CC2)c(-c2nsc3ccc(-n4c(=O)cc(C(F)(F)F)n(C)c4=O)cc23)c1 [Compound 517, Acetic acid, {{2-{5-[3,6-dihydro-3-methyl-2,6-dioxo-4-(trifluoromethyl)-1(2H)-pyrimidinyl]-1,2-benzisothiazol-3-yl}-p-tolyl}oxy}-, (1-phenylcyclopropyl)methyl ester]	0.0				0.0	0.0	0.0	0.0	9.0	9.0		
COc1ccc(OC)c(-c2nsc3ccc(-n4c(=O)cc(C(F)(F)F)n(C)c4=O)cc23)c1 [Compound 333, 2,4(1H,3H)-Pyrimidinedione, 3-[3-(2,5-dimethoxyphenyl)-1,2-benzisothiazol-5-yl]-1-methyl-6-(trifluoromethyl)-]	4.0	8.0	9.0	9.0	6.0	6.0	9.0	9.0	9.0	9.0	4.0	4.0
Cn1c(C(F)(F)F)cc(=O)n(-c2ccc3snc(C(=O)C(C)(C)C)c3c2)c1=O [Compound 432, 2,4(1H,3H)-Pyrimidinedione, 1-methyl-3-(3-pivaloyl-1,2-benzisothiazol-5-yl)-6-(trifluoromethyl)-]	7.0	9.0	9.0	9.0	7.0	7.0	9.0	9.0	9.0	9.0	2.0	4.0
C#CCOC(=O)C(C)(C)Oc1ccc(C)cc1-c1nsc2ccc(-n3c(=O)cc(C(F)(F)F)n(C)c3=O)cc12 [Compound 528, Propionic acid, 2-{{2-{5-[3,6-dihydro-3-methyl-2,6-dioxo-4-(trifluoromethyl)-i(2H)-pyrimidinyl]-1,2-benzisothiazol-3-yl}-p-tolyl}oxy}-2-methyl-, 2-propynyl ester]		9.0			2.0	3.0			6.0	6.0	0.0	
CCC(C#N)(CC)c1nsc2ccc(-n3c(=O)cc(C(F)(F)F)n(C)c3=O)cc12 [Compound 445, 1,2-Benzisothiazole-3-acetonitrile, 5-[3,6-dihydro-3-methyl-2,6-dioxo-4-(trifluoromethyl)-1(2H)-pyrimidinyl]-alpha,alpha-diethyl-]	4.0	4.0	2.0	9.0	7.0	7.0	9.0	9.0	9.0	9.0	4.0	9.0
